This passage reports EC50 results from patent US20260308149A1, “NOVEL CARBOXAMIDE DERIVATIVES” (ANGELINI PHARMA S.P.A., priority 2023, published 2026).

In this experiment the target is T1, human Kv7.2 (Homo sapiens, UniProt O43526).
T1 construct: expressed in transfected cells
T1 sequence (O43526 whole entry): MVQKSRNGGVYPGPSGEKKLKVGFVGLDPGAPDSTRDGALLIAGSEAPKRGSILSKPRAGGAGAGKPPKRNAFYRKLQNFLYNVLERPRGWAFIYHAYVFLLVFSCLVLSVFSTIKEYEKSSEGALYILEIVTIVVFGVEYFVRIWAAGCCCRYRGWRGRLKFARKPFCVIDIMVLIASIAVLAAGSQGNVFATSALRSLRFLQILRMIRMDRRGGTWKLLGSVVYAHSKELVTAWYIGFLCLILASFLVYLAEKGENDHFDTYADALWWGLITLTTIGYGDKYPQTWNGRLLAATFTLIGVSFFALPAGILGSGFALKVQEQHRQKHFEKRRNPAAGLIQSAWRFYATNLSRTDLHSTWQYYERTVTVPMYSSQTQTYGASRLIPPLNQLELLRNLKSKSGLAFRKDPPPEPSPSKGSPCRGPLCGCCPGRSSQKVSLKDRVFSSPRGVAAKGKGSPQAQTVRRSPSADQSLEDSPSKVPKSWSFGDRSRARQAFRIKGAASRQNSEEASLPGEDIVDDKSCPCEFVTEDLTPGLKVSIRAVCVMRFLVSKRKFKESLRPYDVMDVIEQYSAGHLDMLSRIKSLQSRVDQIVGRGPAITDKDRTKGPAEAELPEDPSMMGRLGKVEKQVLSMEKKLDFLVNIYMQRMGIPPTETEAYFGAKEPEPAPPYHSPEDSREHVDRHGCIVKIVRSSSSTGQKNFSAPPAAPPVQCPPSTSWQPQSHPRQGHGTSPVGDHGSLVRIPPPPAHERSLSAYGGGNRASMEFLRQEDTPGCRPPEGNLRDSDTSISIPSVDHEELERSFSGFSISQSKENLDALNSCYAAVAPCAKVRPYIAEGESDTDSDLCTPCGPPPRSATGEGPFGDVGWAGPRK
The experiment is described as follows: activation (potentiation) of Kv7.2 current, SyncroPatch 384 electrophysiology in CHO cells stably expressing human Kv7.2. In kind it is cell-based. The conditions noted are these: human Kv7.2 in CHO cells; in presence of 5.6 μM zinc pyrithione; % activation relative to 30 μM ML-213. The method, boiled down:
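CHO cells stably expressing human Kv7.2 were recorded by automated patch clamp, holding at −60 mV with steps to −30, 40 and −90 mV; current was read at the −90 mV step. Compounds were added after 5.6 μM zinc pyrithione pre-activation. % activation was normalised between 30 μM ML-213 (max) and TEA+XE-991 (leak), with EC50 from a logistic fit.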
In the case of `COC(C)(CNC(=O)NCc1cccc(F)c1)c1cccc(Cl)c1` (stereo not shown) [Example 10, 1-[2-(3-chlorophenyl)-2-methoxy-propyl]-3-[(3-fluorophenyl)methyl]urea], the EC50 turned out to be 0.76 µM.

In the case of `COC(C)(CNC(=O)N[C@H]1CC2CCC1C2)c1cccc(Cl)c1` (mixture of isomers) [Example 25, 1-[2-(3-chlorophenyl)-2-methoxy-propyl]-3-[rac-(1S,2S,4R)-norbornan-2-yl]urea], the 50% effective concentration (EC50) amounted to 0.17 µM.

On to `COC(CNC(=O)NC1CC2CCC1C2)c1cccc(Cl)c1` (stereo not shown) [Example 4, 1-[2-(3-chlorophenyl)-2-methoxy-ethyl]-3-norbornan-2-yl-urea], for which the EC50 worked out at 0.5 µM.

For `O=C(NCC1(c2cccc(Cl)c2)COC1)[C@H]1C[C@@H]1c1ccccc1` [Example 68, (1S,2S)—N-[[3-(3-chlorophenyl)oxetan-3-yl]methyl]-2-phenyl-cyclopropanecarboxamide], the EC50 is 0.2 µM.

With `O=C(CC1CCC(F)(F)CC1)NCC1(c2cccc(Cl)c2)CCO1` (stereo not shown) [Example 65, N-[[2-(3-chlorophenyl)oxetan-2-yl]methyl]-2-(4,4-difluorocyclohexyl)acetamide], the EC50 is 1.92 µM.

As to `N#Cc1cccc([C@]2(CNC(=O)[C@H]3C[C@@H]3c3ccc(Br)cc3)CCO2)c1` [Example 128, (1S,2S)-2-(4-bromophenyl)-N-[[(2S)-2-(3-cyanophenyl)oxetan-2-yl]methyl]cyclopropanecarboxamide], the EC50 was 0.47 µM.

For the compound `N#Cc1cccc([C@]2(CNC(=O)CC3(O)CC4CCC3C4)CCO2)c1` (stereo partly drawn) [Example 111, N-[[(2S)-2-(3-cyanophenyl)oxetan-2-yl]methyl]-2-(2-hydroxynorbornan-2-yl)acetamide], the EC50 turned out to be 2.01 µM.

For the compound `COC(C)(CNC(=O)NCC1CC1)c1cccc(Cl)c1` (stereo not shown) [Example 23, 1-[2-(3-chlorophenyl)-2-methoxy-propyl]-3-(cyclopropylmethyl)urea], the EC50 amounted to 8.2 µM.

Turning to `COC(C)(CNC(=O)[C@H]1C[C@@H]1c1ccccc1)c1ccnc(Cl)c1` (mixture of isomers) [Example 51, (1S,2S)-N-[(2RS)-2-(2-chloro-4-pyridyl)-2-methoxy-propyl]-2-phenyl-cyclopropanecarboxamide], the EC50 turned out to be 0.94 µM.

With `CC#C[C@H]1C[C@@H]1C(=O)NC[C@@]1(c2cccc(C#N)c2)CCO1` (mixture of isomers) [Example 134, (1SR,2SR)—N-[[(2S)-2-(3-cyanophenyl)oxetan-2-yl]methyl]-2-prop-1-ynyl-cyclopropanecarboxamide], the EC50 came to 1.7 µM.

For `CCOc1cccc(NC(=O)NCC(C)(OC)c2cccc(Cl)c2)c1` (stereo not shown) [Example 14, 1-[2-(3-chlorophenyl)-2-methoxy-propyl]-3-(3-ethoxyphenyl)urea], the EC50 worked out at 0.6 µM.

With `O=C(NCC1(c2cccc(Cl)c2)CC1)NC1CCCC1` [Example 7, 1-[[1-(3-chlorophenyl)cyclopropyl]meth-yl]-3-cyclopentyl-urea], the EC50 turned out to be 2.72 µM.

For the compound `O=C(NC/C(=C/CO)c1cccc(Cl)c1)[C@H]1C[C@@H]1c1ccccc1` [Example 77, (1S,2S)—N-[(E)-2-(3-chlorophenyl)-4-hydroxy-but-2-enyl]-2-phenyl-cyclopropanecarboxamide], the EC50 was determined as 0.34 µM.

For `COc1cccc(NC(=O)NCC(C)(OC)c2cccc(Cl)c2)c1` (stereo not shown) [Example 5, 1-[2-(3-chlorophenyl)-2-methoxy-propyl]-3-(3-methoxyphenyl)urea], the EC50 stood at 1.04 µM.

Regarding `N#Cc1cccc([C@]2(CNC(=O)[C@H]3C[C@@H]3C3CCCC3)CCO2)c1` [Example 112, (1S,2R)—N-[[(2S)-2-(3-cyanophenyl)oxetan-2-yl]methyl]-2-cyclopentyl-cyclopropanecarboxamide], the EC50 was 0.09 µM.

For the compound `N#Cc1cccc(C2(CNC(=O)[C@H]3C[C@@H]3c3ccccc3)OCC2(F)F)c1` (stereo partly drawn) [Example 87, (1S,2S)—N-[[2-(3-cyanophenyl)-3,3-difluoro-oxetan-2-yl]methyl]-2-phenyl-cyclopropanecarboxamide], the EC50 is 0.06 µM.

Consider `CO[C@@](C)(CNC(=O)[C@H]1C[C@@H]1c1cccnc1)c1cccc(Cl)c1` (mixture of isomers) [Example 48, (1SR,2SR)-N-[(2R)-2-(3-chlorophenyl)-2-methoxy-propyl]-2-(3-pyridyl)cyclopropanecarboxamide], for which the 50% effective concentration (EC50) is 9.61 µM.

As to `N#Cc1cccc([C@]2(CNC(=O)[C@H]3C[C@@H]3c3ccc(F)cc3)CCO2)c1` (mixture of isomers) [Example 107, (1SR,2SR)—N-[[(2S)-2-(3-cyanophenyl)oxetan-2-yl]methyl]-2-(4-fluorophenyl)cyclopropanecarboxamide], the EC50 came to 0.13 µM.

On to `N#Cc1cccc([C@]2(CNC(=O)[C@H]3C[C@@H]3C3CC(F)(F)C3)CCO2)c1` (mixture of isomers) [Example 127, (1SR,2RS)—N-[[(2S)-2-(3-cyanophenyl)oxetan-2-yl]methyl]-2-(3,3-difluorocyclobutyl)cyclopropanecarboxamide], for which the EC50 amounted to 1.04 µM.

In the case of `CO[C@@](C)(CNC(=O)C1CC12CCOCC2)c1cccc(Cl)c1` (stereo partly drawn) [Example 84, N-[(2R)-2-(3-chlorophenyl)-2-methoxy-propyl]-6-oxaspiro[2.5]octane-2-carboxamide], the 50% effective concentration (EC50) turned out to be 0.13 µM.

Turning to `O=C(NC[C@@]1(c2cccc(Cl)c2)OCC1(F)F)[C@H]1C[C@@H]1c1ccccc1` (stereo in doubt) [Example 41, (1S,2S)-N-[[(2R)-2-(3-chlorophenyl)-3,3-difluoro-oxetan-2-yl]methyl]-2-phenyl-cyclopropanecarboxamide], the EC50 turned out to be 0.05 µM.

Consider `O=C(NCC1CCCC1)NCC1(c2cccc(Cl)c2)CCO1` (stereo not shown) [Example 59, 1-[[2-(3-chlorophenyl)oxetan-2-yl]methyl]-3-(cyclopentylmethyl)urea], for which the EC50 was found to be 0.32 µM.

As for `O=C(NC/C(=C/CO)c1cccc(Cl)c1)NCC1CCCC1` [Example 78, 1-[(E)-2-(3-chlorophenyl)-4-hydroxy-but-2-enyl]-3-(cyclopentylmethyl)urea], the EC50 was 6.79 µM.

Consider `COc1ccc(CCNC(=O)NCC(C)(OC)c2cccc(Cl)c2)cc1` (stereo not shown) [Example 34, 1-[2-(3-chlorophenyl)-2-methoxy-propyl]-3-[2-(4-methoxyphenyl)ethyl]urea], for which the EC50 came out at 3.94 µM.

For `N#Cc1cccc(C2(CNC(=O)[C@H]3C[C@@H]3c3ccccc3)COC2)c1` [Example 85, (1S,2S)—N-[[3-(3-cyanophenyl)oxetan-3-yl]methyl]-2-phenyl-cyclopropanecarboxamide], the EC50 came out at 1.14 µM.

Turning to `N#Cc1cccc([C@]2(CNC(=O)[C@H]3C[C@@H]3C(F)(F)F)CCO2)c1` [Example 95, (1S,2S)—N-[[(2S)-2-(3-cyanophenyl)oxetan-2-yl]methyl]-2-(trifluoromethyl)cyclopropanecarboxamide], the EC50 worked out at 2.55 µM.

With `O=C(NCC(OC1CCC1)c1cccc(Cl)c1)NC1C[C@H]2CC[C@@H]1C2` (mixture of isomers) [Example 46, 1-[2-(3-chlorophenyl)-2-(cyclobutoxy)ethyl]-3-[rac-(1R,4S)-norbornan-2-yl]urea], the EC50 was 3.35 µM.

Regarding `COC(C)(CNC(=O)CC1CCCCC1)c1cccc(Cl)c1` (stereo not shown) [Example 19, N-[2-(3-chlorophenyl)-2-methoxy-propyl]-2-cyclohexyl-acetamide], the EC50 is 0.62 µM.
